The source of these data is ChEMBL document CHEMBL2311314 (J Med Chem, 2013).

Series [1] has as its target Replicase polyprotein 1a (Severe acute respiratory syndrome-related coronavirus) (UniProt P0C6U8). The series is described as follows: Inhibition of SARS-CoV 3CLpro expressed in Escherichia coli BL21 (DE3) at 100 uM by FRET assay in presence of 0.01% Triton X-100.
The target of series [2] is T1, Replicase polyprotein 1a (Severe acute respiratory syndrome-related coronavirus, UniProt P0C6U8). The series is described as follows: (§1) Inhibition of SARS-CoV 3CLpro expressed in Escherichia coli BL21 (DE3) by FRET assay.
The target in series [3] is Replicase polyprotein 1a (Severe acute respiratory syndrome-related coronavirus) (UniProt P0C6U8). Described as §1.
Series [4] in a line: Ratio of EC50 for SARS-CoV infected in african green monkey Vero E6 cells to Ki for SARS-CoV 3CLpro. Details: species or system Severe acute respiratory syndrome-related coronavirus.
The subject of series [5] is Murine coronavirus. Briefly: Inhibition of mouse coronavirus 3CLpro expressed in Escherichia coli BL21 (DE3) at 100 uM by FRET assay in absence of 0.01% Triton X-100.
In series [6] the test system is Human coronavirus HKU1. The series is described as follows: Inhibition of human coronavirus HKU1 3CLpro expressed in Escherichia coli BL21 (DE3) at 100 uM by FRET assay in absence of 0.01% Triton X-100.
Series [7] addresses Replicase polyprotein 1a (Severe acute respiratory syndrome-related coronavirus) (UniProt P0C6U8). Briefly: Inhibition of SARS-CoV 3CLpro expressed in Escherichia coli BL21 (DE3) at 100 uM by FRET assay in absence of 0.01% Triton X-100.
In series [8] the target is T1, Replicase polyprotein 1a. The series is described as follows: Inhibition of SARS-CoV 3CLpro expressed in Escherichia coli BL21 (DE3) after 2 hrs by FRET assay.
Series [9] relates to Murine coronavirus. The series is described as follows: Inhibition of mouse coronavirus 3CLpro expressed in Escherichia coli BL21 (DE3) at 100 uM by FRET assay in presence of 0.01% Triton X-100.
Series [10] deals with Human coronavirus HKU1. Briefly: Inhibition of human coronavirus HKU1 3CLpro expressed in Escherichia coli BL21 (DE3) at 100 uM by FRET assay in presence of 0.01% Triton X-100.
Series [11] is described as follows: Cytotoxicity against african green monkey Vero E6 cells assessed as cell death at […] after 48 hrs by CellTiter-Glo luminescent cell viability assay. As to conditions: chlorocebus sabaeus. In kind it is cell-based. For orientation: Cellular ATP, detected with luciferase, serves as a proxy for viable cell number.
A short description of series [12]: Cytotoxicity against african green monkey Vero E6 cells after 48 hrs by CellTiter-Glo luminescent cell viability assay. The settings on record: chlorocebus sabaeus. The class given is cell-based.
Series [13] is described as follows: Aqueous solubility of the compound in PBS buffer at pH 7.4 after 4 hrs by HPLC with UV detection analysis. The class given is physicochemical.
A short description of series [14]: Inhibition of SARS-CoV PL-pro after 10 mins by luminescence assay. Set-up: species or system Severe acute respiratory syndrome-related coronavirus.

Structures are written as SMILES. ≈ marks a conversion by molar mass, not a printed value. Calls of active or inactive are those of the source. No cut-off for these calls is given here.

Consider `CC(C)(C)NC(=O)C(c1cccnc1)N(C(=O)c1ccncc1)c1ccc(C(C)(C)C)cc1` (stereo not drawn), for which, in [1], the inhibition is over 49%.

With `CC(C)(C)NC(=O)C(c1cccnc1)N(C(=O)c1ccc(O)cc1)c1ccc(C(C)(C)C)cc1` (stereo not drawn), the inhibition in series [1] is over 49%.

For `Cc1ccc(C(=O)N(c2ccc(C(C)(C)C)cc2)C(C(=O)NC(C)(C)C)c2cccnc2)o1` (stereo not drawn), the inhibition in series [1] amounted to 55%.

For the compound `COc1ccc(C(=O)N(c2ccc(C(C)(C)C)cc2)C(C(=O)NC(C)(C)C)c2cccnc2)cc1` (stereo not drawn), the inhibition in series [1] was over 49%.

With `COCC(=O)N(c1ccc(C(C)(C)C)cc1)C(C(=O)NC(C)(C)C)c1cccnc1` (stereo not drawn), the inhibition in series [1] is over 49%.

Consider `CC(C)(C)NC(=O)C(c1cc[nH]n1)N(C(=O)c1ccco1)c1ccc(C(C)(C)C)cc1` (stereo not drawn), for which the inhibition in series [1] was under 15%.

Take `Cn1cnc(C(=O)N(c2ccc(C(C)(C)C)cc2)C(C(=O)NC(C)(C)C)c2cccnc2)c1` (stereo not drawn): at Replicase polyprotein 1a [2], the IC50 worked out at 75 µM. For the same compound, the inhibition in series [1] is over 49%.

`CC(C)(C)NC(=O)C(c1cccnc1)N(C(=O)c1ncccn1)c1ccc(C(C)(C)C)cc1` (stereo not drawn): the inhibition in series [1] was over 49%.

For the compound `CC(C)(C)NC(=O)C(c1cccnc1)N(C(=O)c1cc[nH]n1)c1ccc(C(C)(C)C)cc1` (stereo not drawn), the inhibition in series [1] amounted to 56%.

In the case of `CC(C)(C)NC(=O)C(c1cccnc1)N(C(=O)c1ccccc1O)c1ccc(C(C)(C)C)cc1` (stereo not drawn), the inhibition in series [1] is over 49%.

Consider `CC(C)(C)NC(=O)C(c1ccsc1)N(C(=O)c1ccco1)c1ccc(C(C)(C)C)cc1` (stereo not drawn), for which the inhibition entry in [3] was “inactive”. Besides, the inhibition in series [1] turned out to be 11%.

Turning to `CC(C)(C)NC(=O)C(c1c[nH]cn1)N(C(=O)c1ccco1)c1ccc(C(C)(C)C)cc1` (stereo not drawn), the inhibition in series [1] amounted to 23%.

Turning to `CC(C)(C)NC(=O)C(c1cccnc1)N(C(=O)c1ccc(Cl)cc1)c1ccc(C(C)(C)C)cc1` (stereo not drawn), in series [1], the inhibition is over 49%.

Consider `CC[C@H](NC(=O)[C@@H](NC(=O)OCc1ccccc1)[C@@H](C)OC(C)(C)C)C(=O)N[C@H](C=O)C[C@@H]1CCNC1=O`, for which, in series [4], the Ratio is recorded as 11.5.

In the case of `CC(C)(C)NC(=O)C(c1cccnc1)N(C(=O)CO)c1ccc(C(C)(C)C)cc1` (stereo not drawn), the inhibition in series [1] is over 49%.

As to `CC(C)(C)NC(=O)C(c1cccnc1)N(C(=O)c1ccccn1)c1ccc(C(C)(C)C)cc1` (stereo not drawn), in [1], the inhibition is over 49%.

Regarding `CN(C)CCCSc1ccccc1NC(=O)/C=C/c1ccccc1` [CINANSERIN], the inhibition entry (in the series on Murine coronavirus [5]; with Human coronavirus HKU1 [6]; in series [7]; with Murine coronavirus [9]; in the series on Human coronavirus HKU1 [10]; in series [1]) was “inactive” in each case. This compound also had a concentration for half-maximal inhibition (IC50) at Replicase polyprotein 1a [8] of 5 µM. The Activity in [11] is listed as over 90%. Moreover, the midpoint of cytotoxicity in series [12], the CC50 at 48 h, lay at 31 µM. The CC90 at 48 h in [12] was found to be 66 µM.

Consider `CC(C)(C)NC(=O)C(c1cccnc1)N(C(=O)c1cccnc1)c1ccc(C(C)(C)C)cc1` (stereo not drawn), for which the inhibition in [1] was over 49%.

Take `CCN(CC)c1ccc(C(=O)On2nnc3ccccc32)cc1`: the midpoint of inhibition on Replicase polyprotein 1a [2], the IC50, lay at 11.1 µM.

Turning to `CC(C)CC(=O)N(c1ccc(C(C)(C)C)cc1)C(C(=O)NC(C)(C)C)c1cccnc1` (stereo not drawn), the inhibition in [1] was over 49%.

In the case of `CC(C)(C)NC(=O)C(c1cccnc1)N(C(=O)c1ccco1)c1ccc(F)cc1` (stereo not drawn), the inhibition entry in series [3] is “inactive”.

On to `Cc1ccc(C(C(=O)NC(C)(C)C)N(C(=O)c2ccco2)c2ccc(C(C)(C)C)cc2)cn1` (stereo not drawn), for which, in series [1], the inhibition is under 15%.

`CC(C)(C)NC(=O)C(c1cccnc1)N(C(=O)c1ccc(F)cc1)c1ccc(C(C)(C)C)cc1` (stereo not drawn): the inhibition in [1] was over 49%.

As to `CC(C)(C)NC(=O)C(c1ccnnc1)N(C(=O)c1ccco1)c1ccc(C(C)(C)C)cc1` (stereo not drawn), the half-maximal inhibitory concentration (IC50) on Replicase polyprotein 1a [2] stood at 10 µM.

As to `CC(C)(C)NC(=O)C(c1cccnc1)N(C(=O)Cc1cnc[nH]1)c1ccc(C(C)(C)C)cc1` (stereo not drawn), in [1], the inhibition is over 49%.

Take `COc1cccc(C(=O)N(c2ccc(C(C)(C)C)cc2)C(C(=O)NC(C)(C)C)c2cccnc2)c1` (stereo not drawn): the inhibition in [1] was over 49%.

In series [13], `CC(C)(C)NC(=O)[C@@H](c1cccnc1)N(C(=O)c1ccco1)c1ccc(C(C)(C)C)cc1` showed a solubility at 4 h of 219 µM (≈ 94.9 µg/mL).

On Replicase polyprotein 1a [2], `C=C(Cc1cccc(C)c1)C1=CC=C(c2ccc(C)cc2)C1` came in with an IC50 of 13 µM.

For `CC(C)(C)NC(=O)C(c1cccnc1)N(C(=O)C1CCCO1)c1ccc(C(C)(C)C)cc1` (stereo not drawn), the inhibition in [1] is over 49%.

Consider `Cc1ccoc1C(=O)N(c1ccc(C(C)(C)C)cc1)C(C(=O)NC(C)(C)C)c1cccnc1` (stereo not drawn), for which the inhibition in [1] was found to be 53%.

In the case of `CC(C)(C)NC(=O)C(c1cnccn1)N(C(=O)c1ccco1)c1ccc(C(C)(C)C)cc1` (stereo not drawn), the IC50 on Replicase polyprotein 1a [2] is 5.5 µM.

Regarding `CC(C)(C)NC(=O)C(c1ccccn1)N(C(=O)c1ccco1)c1ccc(C(C)(C)C)cc1` (stereo not drawn), the inhibition in [1] was under 15%.

In turn, `CC(C)(C)NC(=O)C(c1cccnc1)N(C(=O)c1cnco1)c1ccc(C(C)(C)C)cc1` (stereo not drawn) gave an IC50 against Replicase polyprotein 1a [2] of 39 µM. Besides, the inhibition in [1] was over 49%.

On to `CCC(C)c1ccc(N(C(=O)c2ccco2)C(C(=O)NC2CCCC2)c2cccnc2)cc1` (stereo not drawn), for which the IC50 against Replicase polyprotein 1a [2] was 2.2 µM; in [14] it was 34 µM.

As for `CC(C)(C)NC(=O)C(c1ccncc1)N(C(=O)c1ccco1)c1ccc(C(C)(C)C)cc1` (stereo not drawn), on Replicase polyprotein 1a [2], the midpoint of inhibition, the IC50, lay at 45 µM.

Turning to `CC(C)(C)NC(=O)C(c1cn[nH]c1)N(C(=O)c1ccco1)c1ccc(C(C)(C)C)cc1` (stereo not drawn), the inhibition in [1] was 16%.

Regarding `O=C(Oc1cncc(Br)c1)c1cccs1`, inhibition on Replicase polyprotein 1a [2] was half-maximal at 0.5 µM (IC50).

With `CC(C)(C)NC(=O)C(c1cccnc1)N(C(=O)c1cn[nH]c1)c1ccc(C(C)(C)C)cc1` (stereo not drawn), the inhibition in series [1] is over 49%.

Turning to `CC(C)(C)NC(=O)C(c1cccnc1)N(C(=O)c1ccc(Cl)o1)c1ccc(C(C)(C)C)cc1` (stereo not drawn), it took 5.2 µM to reach half-maximal inhibition at Replicase polyprotein 1a [2] (IC50). Also, the inhibition in [1] was over 49%.

As for `COc1ccccc1C(=O)N(c1ccc(C(C)(C)C)cc1)C(C(=O)NC(C)(C)C)c1cccnc1` (stereo not drawn), the inhibition in series [1] is over 49%.

Regarding `CC(C)(C)NC(=O)C(c1cccnc1)N(C(=O)CC(F)(F)F)c1ccc(C(C)(C)C)cc1` (stereo not drawn), the inhibition in [1] turned out to be 57%.

In turn, `CC(C)c1ccc(N(C(=O)c2ccco2)C(C(=O)NC(C)(C)C)c2cccnc2)cc1` (stereo not drawn) displayed an IC50 on Replicase polyprotein 1a [2] of 28.1 µM.

For `CC(C)(C)NC(=O)C(c1cccnc1)N(C(=O)C1=NC=NC1)c1ccc(C(C)(C)C)cc1` (stereo not drawn), at Replicase polyprotein 1a [2], the half-maximal inhibitory concentration (IC50) came to 6 µM. The inhibition in [1] was over 49%.

`CC(C)(C)NC(=O)C(c1cccnc1)N(C(=O)c1cccs1)c1ccc(C(C)(C)C)cc1` (stereo not drawn) yielded a concentration for half-maximal inhibition (IC50) on Replicase polyprotein 1a [2] of 50 µM. Also, in series [1], the inhibition was over 49%.

On to `CC(C)(C)NC(=O)C(c1cccnc1)N(C(=O)c1ccc[nH]1)c1ccc(C(C)(C)C)cc1` (stereo not drawn), for which the inhibition in series [1] is over 49%.

Consider `CC(C)(C)NC(=O)C(c1cccnc1)N(C(=O)c1cccc(O)c1)c1ccc(C(C)(C)C)cc1` (stereo not drawn), for which the inhibition in series [1] is over 49%.

Take `CC(C)(C)NC(=O)C(c1cccnc1)N(C(=O)Cc1ccccc1)c1ccc(C(C)(C)C)cc1` (stereo not drawn): in series [1], the inhibition was over 49%.

Turning to `CC(C)(C)NC(=O)C(c1cccnc1)N(C(=O)c1ncc[nH]1)c1ccc(C(C)(C)C)cc1` (stereo not drawn), the inhibition in [1] was determined as 49%.

Turning to `CC(C)(C)NC(=O)C(c1cccnc1)N(C(=O)c1ccco1)C1CC1` (stereo not drawn), in series [3], the inhibition result is “inactive”.

For `CC(C)(C)NC(=O)C(c1c[nH]nn1)N(C(=O)c1ccco1)c1ccc(C(C)(C)C)cc1` (stereo not drawn), the inhibition in series [1] came to 23%.

In the case of `CC(C)(C)NC(=O)C(c1cccnc1)N(C(=O)c1ncco1)c1ccc(C(C)(C)C)cc1` (stereo not drawn), half-maximal inhibition against Replicase polyprotein 1a [2] (IC50) was put at 47 µM. Moreover, the inhibition in series [1] was over 49%.

By inhibition is commonly meant the relative decrease from the control value, in per cent. In general, IC50 refers to the concentration needed to halve the response being measured. Usually CC50 stands for the concentration at which the toxic effect on the cells reaches its halfway point. A word on the solubility: it is the dissolved amount per volume that the medium holds.
